# From US20240246937A1 (MERCK SHARP & DOHME LLC, priority 2021, published 2024)
# Biological target: recombinant IL4I1 (Homo sapiens (Human), UniProt Q96RQ9)
# Test: IL4I1 Enzymatic Assay (Amplex Red/HRP coupled fluorescence detection of H2O2)
# Assay type: biochemical
# Conditions: 240 min; recombinant IL4I1, four-hour pre-incubation with compound
# Outline: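 Ten-point, 1:3 compound titrations were fitted by four-parameter sigmoidal regression to give EC50. Resorufin fluorescence (544/590 nm) from Amplex Red/HRP-coupled H2O2 detection was read 120 min after adding 1 mM each aromatic amino acid to 1 nM IL4I1, following a 4 h compound pre-incubation in pH 7.0 Hepes buffer.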
# Sequence of recombinant IL4I1 (Q96RQ9 22-567): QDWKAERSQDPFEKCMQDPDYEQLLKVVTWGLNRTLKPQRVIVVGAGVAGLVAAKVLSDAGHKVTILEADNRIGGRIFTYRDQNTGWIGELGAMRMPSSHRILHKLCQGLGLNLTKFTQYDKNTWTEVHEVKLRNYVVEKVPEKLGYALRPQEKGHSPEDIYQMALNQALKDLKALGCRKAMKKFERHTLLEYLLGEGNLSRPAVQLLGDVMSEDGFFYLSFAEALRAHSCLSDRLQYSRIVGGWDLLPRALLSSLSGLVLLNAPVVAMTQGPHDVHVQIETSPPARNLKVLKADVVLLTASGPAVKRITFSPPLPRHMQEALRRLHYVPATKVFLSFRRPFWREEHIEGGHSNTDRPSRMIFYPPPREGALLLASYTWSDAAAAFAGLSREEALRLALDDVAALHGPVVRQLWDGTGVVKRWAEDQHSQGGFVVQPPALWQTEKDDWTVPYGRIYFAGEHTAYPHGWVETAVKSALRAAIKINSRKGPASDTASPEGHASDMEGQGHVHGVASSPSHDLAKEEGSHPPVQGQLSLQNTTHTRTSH
structure (smiles),measurement,value
"O=C1C(=O)N([C@H]2C[C@H]3C[C@H]3C2)CCN1Cc1ccc(-c2ccccc2F)nn1 [Example 51, 1-((1R,3r,5S)-bicyclo[3.1.0]hexan-3-yl)-4-((6-(2-fluorophenyl)pyridazin-3-yl)methyl)piperazine-2,3-dione]",EC50,8 nM
"O=C1C(=O)N(C2(CF)CC2)CCN1Cc1cc(-c2ccccc2)no1 [Example 196, 1-(1-(fluoromethyl)cyclopropyl)-4-((3-phenylisoxazol-5-yl)methyl)piperazine-2,3-dione]",EC50,11 nM
"O=C1C(=O)N(C2CCCC2)CCN1Cc1ncc(-n2nccn2)cn1 [Example 378, 1-((5-(2H-1,2,3-triazol-2-yl)pyrimidin-2-yl)methyl)-4-cyclopentylpiperazine-2,3-dione]",EC50,138 nM
"O=C1C(=O)N(C2CCCC2)CCN1Cc1ccc(-n2ccnn2)nn1 [Example 321, 1-((6-(1H-1,2,3-triazol-1-yl)pyridazin-3-yl)methyl)-4-cyclopentylpiperazine-2,3-dione]",EC50,21 nM
"O=C1C(=O)N(C2CCCC2)CCN1CC12CC(c3ccccc3)(C1)C2 [Example 132, 1-cyclopentyl-4-((3-phenylbicyclo[1.1.1]pentan-1-yl)methyl)piperazine-2,3-dione]",EC50,15 nM
"N#CC1(n2ccn(Cc3cn(-c4cccnc4)nn3)c(=O)c2=O)CC1 [Example 431, 1-(2,3-dioxo-4-((1-(pyridin-3-yl)-1H-1,2,3-triazol-4-yl)methyl)-3,4-dihydropyrazin-1(2H)-yl)cyclopropane-1-carbonitrile]",EC50,130 nM
"O=c1c(=O)n(C23CC(C2)C3)ccn1Cc1cnc(-c2ccccc2F)cn1 [Example 75, 1-(bicyclo[1.1.1]pentan-1-yl)-4-((5-(2-fluorophenyl)pyrazin-2-yl)methyl)-1,4-dihydropyrazine-2,3-dione]",EC50,7 nM
"CC1(n2ccn(Cc3cc(-c4cccnc4)no3)c(=O)c2=O)CC1 [Example 221, 1-(1-methylcyclopropyl)-4-((3-(pyridin-3-yl)isoxazol-5-yl)methyl)-1,4-dihydropyrazine-2,3-dione]",EC50,14 nM
"O=C1C(=O)N(C2CCCC2)CCN1Cc1ccc(N2CCOCC2)nn1 [Example 317, 1-cyclopentyl-4-((6-morpholinopyridazin-3-yl)methyl)piperazine-2,3-dione]",EC50,45 nM
O=c1c(=O)n(C2CCC2)ccn1Cc1cc(-c2ccccc2)ns1 [Example 165],EC50,12 nM
"O=C1C(=O)N(C23CC(C2)C3)CCN1Cc1cc(-c2cccc(F)c2)on1 [Example 76, 1-(bicyclo[1.1.1]pentan-1-yl)-4-((5-(3-fluorophenyl)isoxazol-3-yl)methyl)piperazine-2,3-dione]",EC50,4 nM
"O=c1c(=O)n(C23CC(C2)C3)ccn1Cc1ccc(-c2cncs2)nn1 [Example 95, 1-(bicyclo[1.1.1]pentan-1-yl)-4-((6-(thiazol-5-yl)pyridazin-3-yl)methyl)-1,4-dihydropyrazine-2,3-dione]",EC50,16 nM
"O=C1C(=O)N(C2CC3CC3C2)CCN1Cc1nnc(-c2ccc(F)cc2)s1 (stereo not drawn) [Example 40, 1-((cis)-bicyclo[3.1.0]hexan-3-yl)-4-((5-(4-fluorophenyl)-1,3,4-thiadiazol-2-yl)methyl)piperazine-2,3-dione]",EC50,4 nM
"O=C1C(=O)N(C2CCC2)CCN1Cc1ncc(-n2nccn2)cc1F [Example 400, 1-cyclobutyl-4-((3-fluoro-5-(2H-1,2,3-triazol-2-yl)pyridin-2-yl)methyl)piperazine-2,3-dione]",EC50,25 nM
"O=C1C(=O)N(C23CC(C2)C3)CCN1Cc1nnc(-c2cccc(F)c2)s1 [Example 2, 1-(bicyclo[1.1.1]pentan-1-yl)-4-((5-(3-fluorophenyl)-1,3,4-thiadiazol-2-yl)methyl)piperazine-2,3-dione]",EC50,9 nM
"CC1(n2ccn(Cc3ccc(-n4nccn4)nc3)c(=O)c2=O)CC1 [Example 415, 1-((6-(2H-1,2,3-triazol-2-yl)pyridin-3-yl)methyl)-4-(1-methylcyclopropyl)-1,4-dihydropyrazine-2,3-dione]",EC50,138 nM
"O=C1C(=O)N(c2ccccc2)CCN1Cc1ncc(-c2ccccc2)cn1 [Example 292, 1-phenyl-4-((5-phenylpyrimidin-2-yl)methyl)piperazine-2,3-dione]",EC50,64 nM
"O=c1c(=O)n(C2CCC2)ccn1Cc1cnc(-c2ccccc2F)cn1 [Example 74, 1-cyclobutyl-4-((5-(2-fluorophenyl)pyrazin-2-yl)methyl)-1,4-dihydropyrazine-2,3-dione]",EC50,5 nM
"CC1(n2ccn(Cc3ccc(-c4ccccn4)nn3)c(=O)c2=O)CC1 [Example 87, 1-(1-methylcyclopropyl)-4-((6-(pyridin-2-yl)pyridazin-3-yl)methyl)-1,4-dihydropyrazine-2,3-dione]",EC50,87 nM
"O=C1C(=O)N(C2CCCC2)CCN1Cc1nnc(-c2ccc(F)cc2)s1 [Example 351, 1-cyclopentyl-4-((5-(4-fluorophenyl)-1,3,4-thiadiazol-2-yl)methyl)piperazine-2,3-dione]",EC50,8 nM
"O=C1C(=O)N(C2(c3ccncc3)CC2)CCN1Cc1nnc(-c2ccccc2)s1 [Example 304, 1-((5-phenyl-1,3,4-thiadiazol-2-yl)methyl)-4-(1-(pyridin-4-yl)cyclopropyl)piperazine-2,3-dione]",EC50,98 nM
"O=c1c(=O)n([C@H]2C[C@H]3C[C@H]3C2)ccn1Cc1nnc(-c2ccc(F)cc2)s1 [Example 41, 1-((cis)-bicyclo[3.1.0]hexan-3-yl)-4-((5-(4-fluorophenyl)-1,3,4-thiadiazol-2-yl)methyl)-1,4-dihydropyrazine-2,3-dione]",EC50,2 nM
"CC1(n2ccn(Cc3cn(-c4cccnc4)nn3)c(=O)c2=O)CC1 [Example 429, 1-(1-methylcyclopropyl)-4-((1-(pyridin-3-yl)-1H-1,2,3-triazol-4-yl)methyl)-1,4-dihydropyrazine-2,3-dione]",EC50,29 nM
"O=c1c(=O)n(C23CC(F)(C2)C3)ccn1Cc1ccc(-c2cncs2)nn1 [Example 213, 1-(3-fluorobicyclo[1.1.1]pentan-1-yl)-4-((6-(thiazol-5-yl)pyridazin-3-yl)methyl)-1,4-dihydropyrazine-2,3-dione]",EC50,29 nM
"CC1(n2ccn(Cc3cc(-c4ccc(F)cc4)on3)c(=O)c2=O)CCC1 [Example 422, 1-((5-(4-fluorophenyl)isoxazol-3-yl)methyl)-4-(1-methylcyclobutyl)-1,4-dihydropyrazine-2,3-dione]",EC50,5 nM
"CC(C)(c1cccnc1)N1CCN(Cc2nnc(-c3ccccc3)s2)C(=O)C1=O [Example 300, 1-((5-phenyl-1,3,4-thiadiazol-2-yl)methyl)-4-(2-(pyridin-3-yl)propan-2-yl)piperazine-2,3-dione]",EC50,86 nM
"O=C1C(=O)N(C2CCCC2)CCN1Cc1ccc(-c2ccccc2F)nn1 [Example 9, 1-cyclopentyl-4-((6-(2-fluorophenyl)pyridazin-3-yl)methyl)piperazine-2,3-dione]",EC50,15 nM
"CC1(N2CCN(Cc3nnc(-c4ccccc4)s3)C(=O)C2=O)CCCCC1 [Example 306, 1-(1-methylcyclohexyl)-4-((5-phenyl-1,3,4-thiadiazol-2-yl)methyl)piperazine-2,3-dione]",EC50,27 nM
"O=C1C(=O)N(CC2CCC2)CCN1Cc1ncc(-c2ccccc2)cn1 [Example 281, 1-(cyclobutylmethyl)-4-((5-phenylpyrimidin-2-yl)methyl)piperazine-2,3-dione]",EC50,35 nM
